According to ChEMBL document CHEMBL6127022, “Acid-sensitive prodrugs; a promising approach for site-specific and targeted drug release” (Eur J Med Chem, 2024):
≈ marks a conversion by molar mass, not a printed value.

Assays:
[1] = test system: RAW264.7; experiment: Anti-inflammatory activity in LPS-induced mouse RAW264.7 cells assessed as inhibition of TNF-alpha production at 10 uM incubated for 24 hrs by qRT-PCR analysis relative to control; assay type: functional; design: scale not given: the % may be the effect or the level left
[2] = test system: KB; experiment: Antitumor activity against human KB cells assessed as reduction in cell growth incubated for 96 hrs by MTT assay; assay type: functional, cell-based
[3] = test system: HeLa; experiment: cells; settings: Homo sapiens, 96 h
Description: Anticancer activity against human HeLa cells assessed as inhibition of cell growth incubated for 96 hrs by MTT assay

[4] = test system: RAW264.7; experiment: Anti-inflammatory activity in LPS-induced mouse RAW264.7 cells assessed as inhibition of IL-6 production at 10 uM incubated for 24 hrs by qRT-PCR analysis relative to control; assay type: functional; design: scale not given: the % may be the effect or the level left

| Compound | Activity [1] [%] | Activity [4] [%] | also measured |
| --- | --- | --- | --- |
| NC(=O)Nc1sc(-c2ccc(F)cc2)cc1C(N)=O | 20 | – | – |
| CC(=O)O[C@H]1C(=O)[C@@]2(C)[C@H]([C@H](OC(=O)c3ccccc3)[C@]3(O)C[C@H](OC(=O)[C@H](O)[C@@H](NC(=O)c4ccccc4)c4ccccc4)C(C)=C1C3(C)C)[C@]1(OC(C)=O)CO[C@@H]1C[C@@H]2O [PACLITAXEL] | – | – | IC50 [2]: 0.18 µg/mL (≈ 0.211 µM); IC50 [3]: 0.9 µg/mL (≈ 1.05 µM) |
| COc1ccc2cc([C@H](C)C(=O)O)ccc2c1 [NAPROXEN] | – | 65 | – |
| CN(Cc1cnc2nc(N)nc(N)c2n1)c1ccc(C(=O)N[C@@H](CCC(=O)O)C(=O)O)cc1 [METHOTREXATE] | – | 78.5 | – |
| CC(C)Cc1ccc(C(C)C(=O)O)cc1 (stereo unspecified) [IBUPROFEN] | 90 | – | – |
